How the values were obtained:
Format in all cases: in vivo
[1] = system: Amaranthus retroflexus; assay: Test Example 5: herbicidal effect by foliage application, plastic box (symbol N); settings: 3 weeks after application
Outline: (§1)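 After sowing into sterilized diluvial soil and growing two weeks under glass at 25° C. to 30° C., seedlings receive a uniform foliar spray of diluted emulsion. Damage is judged visually three weeks on.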

[2] = system: corn; assay: Test Example 5: effect on crop by foliage application, plastic box (symbol c); settings: 3 weeks after application
Outline: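 A greenhouse held between 25° C. and 30° C. was used to grow plants sown spot-wise, beneath ~1.5 cm of soil, in boxes of sterilized diluvial soil.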

[3] = system: Abutilon theophrasti; assay: Test Example 4: herbicidal effect by soil treatment (symbol M); settings: for Herbicidal effect grade, M: Abutilon theophrasti: application herbicide amount 320 g/ha
Outline: (§2)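 Seeds were sown in sterilized diluvial soil, covered with about 1.5 cm of soil, and the soil surface was sprayed with a water-diluted emulsion of the compound at a predetermined rate. Plants grew in a greenhouse at 25° C. to 30° C.; effects were scored visually 3 weeks after application.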

[4] = system: Echinochloa oryzacola Vasing.; assay: Test Example 2: herbicidal activity, application during weed generation in submerged conditions (symbol A); settings: Table 23, grade 0-5 by criteria of Test Example 1
Outline: (§3)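 Each pot contained alluvial soil under 4 cm of water with seeds of all three weeds sown together. Following growth at 25° C. to 30° C. to the one- to two-leaf stage, the floodwater received diluted emulsion at a predetermined amount; visual assessment followed at 3 weeks.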

[5] = system: Veronica persica; assay: Test Example 5: herbicidal effect by foliage application, plastic box (symbol R); settings: 3 weeks after application
Outline: as §1

[6] = system: Digitaria ciliaris; assay: Test Example 5: herbicidal effect by foliage application, plastic box (symbol F); settings: 3 weeks after application
Outline: as §1

[7] = system: transplanted rice plant; assay: Test Example 1: effect on crop, application before weed generation in submerged conditions (symbol a)
Outline: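 Alluvial soil pots flooded to 4 cm water, sown with Echinochloa oryzacola, Scirpus juncoides and Monochoria vaginalis, then transplanted with 2.5 leaf stage rice seedlings; pre-emergence application. Greenhouse 25° C. to 30° C.; scored 0–5 by herbicidal ratio 3 weeks after application.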

[8] = system: corn; assay: Test Example 4: effect on crop by soil treatment (symbol c); settings: for Effect on crop grade, c: corn: application herbicide amount 320 g/ha; for c: corn, effect grade on crop: 320 g/ha
Outline: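 Steps: fill box with sterilized diluvial soil; sow seed spot-like; cover with ~1.5 cm soil; grow in greenhouse (25° C. to 30° C.).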

[9] = system: Apera spica-venti; assay: Test Example 4: herbicidal effect by soil treatment (symbol L); settings: for Herbicidal effect grade, L: Apera spica-venti: application herbicide amount 320 g/ha
Outline: as §2

[10] = system: Alopecurus myosuroides; assay: Test Example 5: herbicidal effect by foliage application, plastic box (symbol J); settings: 3 weeks after application
Outline: as §1

[11] = system: Scirpus juncoides; assay: Test Example 2: herbicidal activity, application during weed generation in submerged conditions (symbol B); settings: Table 23, grade 0-5 by criteria of Test Example 1
Outline: as §3

[12] = system: Avena fatua; assay: Test Example 4: herbicidal effect by soil treatment (symbol I); settings: for Herbicidal effect grade, I: Avena fatua: application herbicide amount 320 g/ha
Outline: as §2

[13] = system: Echinochloa crus-galli var. crus-galli; assay: Test Example 3: herbicidal effect by foliage application, Wagner pot (symbol H); settings: for H (Echinochloa crus-galli var. crus-galli) herbicidal effect grade: Table 24
Outline: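 Seeds sown in alluvial soil kept under 0.1–0.5 cm water, greenhouse 25–30 °C; 14 d growth. Leaves treated by small sprayer with water-diluted emulsion at a predetermined rate. Effect graded by set scale, 3 weeks.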

[14] = system: Alopecurus myosuroides; assay: Test Example 4: herbicidal effect by soil treatment (symbol J); settings: for Herbicidal effect grade, J: Alopecurus myosuroides: application herbicide amount 320 g/ha
Outline: as §2

[15] = application herbicide amount 320 g/ha
[16] = application herbicide amount 269 g/ha

Row | SMILES | N: Amaranthus retroflexus, herbicidal effect grade ([1]; 320 g/ha) | c: corn, effect on crop grade ([2]; 320 g/ha) | Herbicidal effect grade, M: Abutilon theophrasti [3] | Herbicidal effect grade, A: Echinochloa oryzacola Vasing. [4, 15] | R: Veronica persica, herbicidal effect grade ([5]; 320 g/ha) | F: Digitaria ciliaris, herbicidal effect grade ([6]; 320 g/ha) | a (transplanted rice plant) effect on crop grade [7, 15] | Herbicidal effect grade, B: Scirpus juncoides [11, 15] | N: Amaranthus retroflexus, herbicidal effect (criteria 0-5) ([1]; 320 g/ha) | c: corn, effect on crop (criteria 0-5) ([2]; 320 g/ha) | M: Abutilon theophrasti, herbicidal effect grade ([3]; 320 g/ha) | R: Veronica persica, herbicidal effect (criteria 0-5) ([5]; 320 g/ha) | F: Digitaria ciliaris, herbicidal effect (criteria 0-5) ([6]; 320 g/ha) | Effect grade on crop, a: transplanted rice plant [7, 15] | c: corn, effect grade on crop [8] | L: Apera spica-venti, herbicidal effect grade ([9]; 320 g/ha) | J: Alopecurus myosuroides, herbicidal effect (criteria 0-5) ([10]; 320 g/ha) | I: Avena fatua, herbicidal effect grade ([12]; 320 g/ha) | herbicidal effect on H (Echinochloa crus-galli var. crus-galli), grade 0-5 [13, 15] | J: Alopecurus myosuroides, herbicidal effect grade ([14]; 320 g/ha) | also measured
1 | CON=C(C)CC1C(O)=C(c2c(C)cc(C)cc2C)C(=O)C1C (mixture of isomers) [12-002] | 0 (Herbicidal ratio of 5% or lower (almost no effect)) | 5 (Herbicidal ratio of 90% or more (almost completely withered)) | 0 (Herbicidal ratio of 5% or lower (almost no effect)) | 5 (Herbicidal ratio of 90% or more (almost completely withered)) | 4 (Herbicidal ratio of 70% or higher and lower than 90%) | 5 (Herbicidal ratio of 90% or more (almost completely withered)) | 3 (Herbicidal ratio of 40% or higher and lower than 70%) | 3 (Herbicidal ratio of 40% or higher and lower than 70%) |  |  |  |  |  |  |  |  |  |  |  |  | Effect on crop grade, c: corn [8]: 3 (Herbicidal ratio of 40% or higher and lower than 70%); Herbicidal effect grade, L: Apera spica-venti [9]: 3 (Herbicidal ratio of 40% or higher and lower than 70%); J: Alopecurus myosuroides, herbicidal effect grade ([10]; 320 g/ha): 5 (Herbicidal ratio of 90% or more (almost completely withered)); Herbicidal effect grade, I: Avena fatua [12]: 4 (Herbicidal ratio of 70% or higher and lower than 90%); H (Echinochloa crus-galli var. crus-galli) herbicidal effect grade [13, 15]: 5 (Herbicidal ratio of 90% or more (almost completely withered)); Herbicidal effect grade, J: Alopecurus myosuroides [14]: 4 (Herbicidal ratio of 70% or higher and lower than 90%)
2 | Cc1cc(Br)cc(C)c1C1=C(O)CC(CC(=O)C(C)C)C1=O (racemic) [10-003] | 0 (Herbicidal ratio of 5% or lower (almost no effect)) | 2 (Herbicidal ratio of 20% or higher and lower than 40%) | 0 (Herbicidal ratio of 5% or lower (almost no effect)) | 3 (Herbicidal ratio of 40% or higher and lower than 70%) | 0 (Herbicidal ratio of 5% or lower (almost no effect)) | 3 (Herbicidal ratio of 40% or higher and lower than 70%) | 3 (Herbicidal ratio of 40% or higher and lower than 70%) | 0 (Herbicidal ratio of 5% or lower (almost no effect)) |  |  |  |  |  |  |  |  |  |  |  |  | Effect on crop grade, c: corn [8]: 0 (Herbicidal ratio of 5% or lower (almost no effect)); Herbicidal effect grade, L: Apera spica-venti [9]: 3 (Herbicidal ratio of 40% or higher and lower than 70%); J: Alopecurus myosuroides, herbicidal effect grade ([10]; 320 g/ha): 3 (Herbicidal ratio of 40% or higher and lower than 70%); Herbicidal effect grade, I: Avena fatua [12]: 0 (Herbicidal ratio of 5% or lower (almost no effect)); H (Echinochloa crus-galli var. crus-galli) herbicidal effect grade [13, 15]: 5 (Herbicidal ratio of 90% or more (almost completely withered)); Herbicidal effect grade, J: Alopecurus myosuroides [14]: 3 (Herbicidal ratio of 40% or higher and lower than 70%)
3 | CON=C(C)CON=C(C)CC1CC(O)=C(c2c(C)cc(C)cc2C)C1=O (stereo not drawn) [1-105] |  |  |  | 5 (Herbicidal ratio of 90% or more (almost completely withered)) |  |  |  | 5 (Herbicidal ratio of 90% or more (almost completely withered)) | 0 (Herbicidal ratio of 5% or lower (almost no effect)) | 4 (Herbicidal ratio of 70% or higher and lower than 90%) | 1 (Herbicidal ratio of 5% or higher and lower than 20%) | 3 (Herbicidal ratio of 40% or higher and lower than 70%) | 5 (Herbicidal ratio of 90% or more (almost completely withered)) | 5 (Herbicidal ratio of 90% or more (almost completely withered)) | 1 (Herbicidal ratio of 5% or higher and lower than 20%) | 5 (Herbicidal ratio of 90% or more (almost completely withered)) | 5 (Herbicidal ratio of 90% or more (almost completely withered)) | 1 (Herbicidal ratio of 5% or higher and lower than 20%) | 5 (Herbicidal ratio of 90% or more (almost completely withered)) | 5 (Herbicidal ratio of 90% or more (almost completely withered)) | 
4 | CC(CC1CC(O)=C(c2c(C)cc(C)cc2C)C1=O)=NOCC(N)=O (stereo not drawn) [1-124] |  |  |  | 2 (Herbicidal ratio of 20% or higher and lower than 40%) |  |  |  | 0 (Herbicidal ratio of 5% or lower (almost no effect)) | 0 (Herbicidal ratio of 5% or lower (almost no effect)) | 4 (Herbicidal ratio of 70% or higher and lower than 90%) | 0 (Herbicidal ratio of 5% or lower (almost no effect)) | 0 (Herbicidal ratio of 5% or lower (almost no effect)) | 0 (Herbicidal ratio of 5% or lower (almost no effect)) | 0 (Herbicidal ratio of 5% or lower (almost no effect)) | 0 (Herbicidal ratio of 5% or lower (almost no effect)) | 0 (Herbicidal ratio of 5% or lower (almost no effect)) | 3 (Herbicidal ratio of 40% or higher and lower than 70%) | 0 (Herbicidal ratio of 5% or lower (almost no effect)) | 5 (Herbicidal ratio of 90% or more (almost completely withered)) | 2 (Herbicidal ratio of 20% or higher and lower than 40%) | 
5 | CC(=O)C(C)C1CC(O)=C(c2c(C)cc(C)cc2C)C1=O (stereo not drawn) [2-005] |  |  |  |  |  |  |  |  |  |  |  |  |  |  |  |  |  |  |  |  | N: Amaranthus retroflexus, herbicidal effect grade ([1]; 269 g/ha): 0 (Herbicidal ratio of 5% or lower (almost no effect)); c: corn, effect on crop grade ([2]; 269 g/ha): 3 (Herbicidal ratio of 40% or higher and lower than 70%); M: Abutilon theophrasti, herbicidal effect grade [3, 16]: 0 (Herbicidal ratio of 5% or lower (almost no effect)); Herbicidal effect grade, A: Echinochloa oryzacola Vasing. [4, 16]: 3 (Herbicidal ratio of 40% or higher and lower than 70%); R: Veronica persica, herbicidal effect grade ([5]; 269 g/ha): 0 (Herbicidal ratio of 5% or lower (almost no effect)); F: Digitaria ciliaris, herbicidal effect grade ([6]; 269 g/ha): 3 (Herbicidal ratio of 40% or higher and lower than 70%); Effect grade on crop, a: transplanted rice plant [7, 16]: 4 (Herbicidal ratio of 70% or higher and lower than 90%); c: corn, effect on crop grade [8, 16]: 0 (Herbicidal ratio of 5% or lower (almost no effect)); L: Apera spica-venti, herbicidal effect grade [9, 16]: 1 (Herbicidal ratio of 5% or higher and lower than 20%); J: Alopecurus myosuroides, herbicidal effect grade ([10]; 269 g/ha): 5 (Herbicidal ratio of 90% or more (almost completely withered)); Herbicidal effect grade, B: Scirpus juncoides [11, 16]: 0 (Herbicidal ratio of 5% or lower (almost no effect)); I: Avena fatua, herbicidal effect grade [12, 16]: 0 (Herbicidal ratio of 5% or lower (almost no effect)); herbicidal effect on H (Echinochloa crus-galli var. crus-galli), grade 0-5 [13, 16]: 5 (Herbicidal ratio of 90% or more (almost completely withered)); J: Alopecurus myosuroides, herbicidal effect grade [14, 16]: 4 (Herbicidal ratio of 70% or higher and lower than 90%)
6 | CC(CC1CC(O)=C(c2c(C)cc(C)cc2C)C1=O)=NOC1CCCC1 (stereo not drawn) [1-106] |  |  |  | 5 (Herbicidal ratio of 90% or more (almost completely withered)) |  |  |  | 0 (Herbicidal ratio of 5% or lower (almost no effect)) | 5 (Herbicidal ratio of 90% or more (almost completely withered)) | 5 (Herbicidal ratio of 90% or more (almost completely withered)) | 0 (Herbicidal ratio of 5% or lower (almost no effect)) | 1 (Herbicidal ratio of 5% or higher and lower than 20%) | 5 (Herbicidal ratio of 90% or more (almost completely withered)) | 5 (Herbicidal ratio of 90% or more (almost completely withered)) | 1 (Herbicidal ratio of 5% or higher and lower than 20%) | 5 (Herbicidal ratio of 90% or more (almost completely withered)) | 5 (Herbicidal ratio of 90% or more (almost completely withered)) | 3 (Herbicidal ratio of 40% or higher and lower than 70%) | 5 (Herbicidal ratio of 90% or more (almost completely withered)) | 5 (Herbicidal ratio of 90% or more (almost completely withered)) | 
